In general, IC50 refers to the point on the concentration scale where inhibition reaches its midpoint. A high value points to weaker potency in that assay.

The values that follow come from US11351178B2, “Selective HDAC6 inhibitors” (ITALFARMACO S.P.A., priority 2017, dated 2022).

The subject of assay [1] is regulatory T cell (Treg, CD4+CD25+) suppression activity. Kind of assay: T CD4 lymphocyte proliferation mediated by mouse regulatory T cells suppression assay. It is filed as cell-based. The method, then:
To evaluate the ability of the molecules under this patent to increase regulatory T cell (Treg, CD4^+CD25^+) suppression activity a T-cell (responder T cells, Teff) proliferation suppression assay was used. Treg cells at different concentrations were cultured with Teff cells (CD4^+CD25^−) in the presence of proliferative stimuli. T cells need of two stimuli to proliferate: the first given by the recognition of antigen associated with MHC by T cell receptor (TCR) and the second one derived from co-stimulatory molecules such as CD28. In the absence of a specific antigen, TCR activation can take place with an antibody recognizing one of the composing subunits, CD3ε. In this assay, anti-CD3ε monoclonal antibody and CD4 T cell depleted splenocytes were used as activator stimuli. Therefore, the ability to reduce Teff cells proliferation by Tregs in the presence or absence of HDAC6 inhibitors was assessed.
Treg and Teff cells were separated using the Treg isolation kit based on magnetic beads separation technique (Miltenyi Biotec) through an initial negative selection and a final positive selection process.
Single cell suspension was obtained from spleen of C57BL/6 mice using a 70 μm strainer.
Cell suspension was treated with ACK buffer to lyse red blood cells and then centrifuged for 5 minutes at 300×g. After centrifugation, the cells were resuspended in PBS (Phosphate Buffered Saline, Gibco) and counted. Subsequently, splenocytes were resuspended in a buffer consisting of PBS, 0.5% BSA and 2 mM EDTA.
To proceed with the first step of Treg separation, CD4 negative cells were indirectly magnetically labeled with a cocktail of biotin-conjugated antibodies against CD8a, CD11b, CD45R, CD49b, Ter-119 and Anti-Biotin MicroBeads CD4+ cells were thus obtained by negative selection as flow-through of a magnetic MACS column.
Cells bound to microbeads were eluted and conserved for their use as antigen presenting cells (APC) in the proliferation assay.
In the second step of Treg purification, pre-enriched CD4+ cells were labelled with an R-phycoerythrin (PE)-conjugated anti-CD25 antibody that preferentially binds to Treg cells and magnetic beads coupled with an anti PE antibody. The cell suspension was then loaded on a column. The Teff cells pass through the column without binding (negative selection), while beads-bound Treg cells adhere through the magnetic beads (positive selection). Treg cells were then eluted from the column by buffer flow using a plunger. Treg and Teff cell purification is summarized in FIG. 6. • CD4− cells from first positive selection as APC • Treg CD4+ CD25+ as suppressor cells • Teff CD4+ CD25− as responder/proliferating cells
CD4^− cells were treated with mitomycin C (50 μg/ml, Sigma) for 30 min at 37° C. to prevent their proliferation They were then resuspended at a concentration of 4.0×10^5/50 μl in complete medium (RPMI, FBS10%, penicillin/streptomycin 1×, 50 μM beta mercaptoethanol). Teffs were labeled with carboxy fluorescein succinimidyl ester (CFSE) at a concentration of 2 μM in PBS at 37° C., and after 10 minutes incubation, the reaction was blocked with a 10% FBS PBS solution. CFSE labelling allows covalent modification of Teff cell to analyse their proliferation by fluorescence dilution. The labelled Teffs were then centrifuged and resuspended at the final concentration of 5.0×10^4/50 μl in complete medium. Finally, the Tregs obtained by purification were diluted to the final concentration of 5.0×10^4/50 μl in complete medium.
Then a co-culture of Teff (5.0×10^4), T CD4^− (4.0×10^5) was prepared and Treg cells in different ratios (1:1, 1:2, 1:4, 1:8 ratio Teff to Treg cells) were added thereto. The test compounds at different concentrations or DMSO vehicle were added to the cell suspension. Finally, an anti-CD3ε monoclonal antibody (Miltenyi Biotec) was added at a concentration of 1 μg/ml. Cells were plated in flat bottom 96-well plates and each condition was set up in a technical duplicate. […]

The next assay concerns the target T1, HDAC11 (Homo sapiens, UniProt Q96DB2).
T1 construct: purchased BML SE560
T1 sequence (Q96DB2 1-347): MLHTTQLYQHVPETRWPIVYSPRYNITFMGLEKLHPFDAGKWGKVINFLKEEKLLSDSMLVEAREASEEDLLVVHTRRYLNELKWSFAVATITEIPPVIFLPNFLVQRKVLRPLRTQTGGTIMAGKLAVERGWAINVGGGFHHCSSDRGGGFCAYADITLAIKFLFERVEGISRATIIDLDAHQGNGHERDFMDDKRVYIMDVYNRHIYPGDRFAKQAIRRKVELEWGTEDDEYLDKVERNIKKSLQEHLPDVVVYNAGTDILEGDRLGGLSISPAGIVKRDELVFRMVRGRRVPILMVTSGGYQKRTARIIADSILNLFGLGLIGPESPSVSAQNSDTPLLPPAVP
Kind of assay: Enzymatic test HDAC11. The settings on record: Table 3. In kind it is biochemical. The procedure:
After a period of incubation at 30° C. (incubation times vary for different isoforms and are shown in table 1) 25 μL of solution containing the substrate were added. As substrate, FLUOR DE LYS® deacetylase substrate (Enzo Life Sciences, cat #BML-K1104, FdL), FLUOR DE LYS®-Green substrate (Enzo Life Sciences, cat #BML-K1572 FdL_G) and trifluoroacetyl-L-lysine (Tfal)-2× concentrated solution in 25 mM Tris-HCl, pH 8, 130 mM NaCl 0.05% Tween-20 10% glycerol) were used. Following a reaction period at 30° C.

The next assay has as its target T2, HDAC10 (Homo sapiens, UniProt Q969S8).
T2 construct: purchased BPS 50010
T2 sequence (Q969S8 1-669): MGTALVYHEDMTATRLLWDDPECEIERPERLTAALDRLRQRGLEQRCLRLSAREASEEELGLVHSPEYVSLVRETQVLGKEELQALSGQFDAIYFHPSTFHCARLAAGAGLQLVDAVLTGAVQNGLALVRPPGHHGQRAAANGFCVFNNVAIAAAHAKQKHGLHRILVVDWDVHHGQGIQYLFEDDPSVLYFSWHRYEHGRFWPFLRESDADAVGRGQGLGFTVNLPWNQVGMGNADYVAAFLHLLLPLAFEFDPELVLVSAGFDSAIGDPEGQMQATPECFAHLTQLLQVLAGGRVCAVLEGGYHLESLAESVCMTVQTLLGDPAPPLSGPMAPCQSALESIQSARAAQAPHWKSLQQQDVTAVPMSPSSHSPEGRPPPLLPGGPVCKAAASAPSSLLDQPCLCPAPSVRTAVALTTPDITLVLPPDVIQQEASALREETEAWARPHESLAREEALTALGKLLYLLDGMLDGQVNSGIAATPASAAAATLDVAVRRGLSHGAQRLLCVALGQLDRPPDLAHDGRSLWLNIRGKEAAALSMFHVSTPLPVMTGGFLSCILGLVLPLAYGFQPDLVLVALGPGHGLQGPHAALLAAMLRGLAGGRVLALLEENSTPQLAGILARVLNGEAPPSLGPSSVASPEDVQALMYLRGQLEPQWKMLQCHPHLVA
Kind of assay: Enzymatic test HDAC10. In kind it is biochemical. To be noted: Table 3.

On to `Cc1cc(-c2nnc(Sc3ccc(C(=O)NO)cc3)n2C)nn1C` [comp. 85, 4-[[5-(1,5-dimethylpyrazol-3-yl)-4-methyl-1,2,4-triazol-3-yl]sulfanyl]benzenecarbohydroxamic acid], for which the figures for the “RS (relative T-reg suppression, AUC drug/AUC control)” value in assay [1] (concentration 0.5 μM) and in assay [1] (concentration 1 μM) were 3.0 and 3.8, respectively. For the same compound, the IC50 at HDAC11 is 557 nM; against HDAC10 it was 954 nM.
Turning to `O=C(NO)c1cc(F)c(Cn2nnnc2-c2cccs2)c(F)c1` [comp. 15, 3,5-difluoro-N-hydroxy-4-((5-(thiophen-2-yl)-1H-tetrazol-1-yl)methyl)benzamide], in assay [1] (concentration 1 μM), the “RS (relative T-reg suppression, AUC drug/AUC control)” value was 3.0. The IC50 at HDAC11 is 4590 nM; at HDAC10, 8630 nM.
For `O=C(NO)c1ccc(Cn2nnc(-c3ccccc3F)n2)cc1` [comp. 33, 4-[[5-(2-fluorophenyl)tetrazol-2-yl]methyl]benzenecarbohydroxamic acid], in assay [1] (concentration 0.10 μM), the “RS (relative T-reg suppression, AUC drug/AUC control)” value was 4.6. In addition, the IC50 against HDAC11 amounted to 225 nM; against HDAC10 it was 441 nM.
As to `O=C(NO)c1cc(F)c(Cn2nnc(-c3ccco3)n2)c(F)c1` [comp. 19, 3,5-difluoro-4-((5-(furan-2-yl)-2H-tetrazol-2-yl)methyl)-N-hydroxybenzamide], in assay [1] (concentration 1 μM), the “RS (relative T-reg suppression, AUC drug/AUC control)” value is given as 2.3. Moreover, the IC50 on HDAC11 was determined as 798 nM; against HDAC10 it was 2700 nM.
In the case of `CN(C)S(=O)(=O)c1cccc(-c2nnn(Cc3ccc(C(=O)NO)cc3)n2)c1` [comp. 59, 4-[[5-[3-(dimethylsulfamoyl)phenyl]tetrazol-2-yl]methyl]benzenecarbohydroxamic acid], the “RS (relative T-reg suppression, AUC drug/AUC control)” value in assay [1] (concentration 0.5 μM) stood at 4.8. Besides, the IC50 against HDAC11 is 515 nM; on HDAC10, 542 nM.
